This is an account of results in patent US12576044B2, “Treatment of Alzheimer's disease” (priority 2015, dated 2026).

The test system of data set [1] is superactivated platelets (SAPs). The data set can be described thus: SAP inhibition by combinatorial drug treatment (flow cytometry of platelet rich plasma activated with thrombin and convulxin). Format: cell-based, human. The settings on record: 10 μM, 30 minutes at 37° C., normalized relative to Control. As for the experimental part: A venipuncture sample of 10 mL of blood is obtained from each patient. Of the 10 mL, a 3 mL aliquot of blood is added to a tube containing 0.5 mL of acid-citrate-dextrose solution (38 mM citric acid, 75 mM sodium citrate, 135 mM glucose) to prevent clotting. […] After centrifuging at 1100 rpm for 10 minutes at room temperature, platelet rich plasma (PRP), which is the upper layer, is removed. The PRP is transferred to a new tube, leaving about 0.5 mL above the buffy coat layer. The PRP-containing tube is incubated with 10 μL of thrombin and convulxin, two agonists that activate the platelets, for five minutes. Platelets are then treated with biotinylated fibrinogen and stained with the following fluorophores: APC-streptavidin (APC-SA), FITC-PAC1, and PE-anti-CD41. PE-anti-CD41 recognizes the platelet-specific, transmembrane protein CD41. FITC-PAC1 identifies activated platelets by recognizing […] which increases its expression at the surface upon activation. APC-SA recognizes superactivated platelets that more readily bind the biotinylated fibrinogen to their surface.
All fluorophores are excited at 488 nm by argon laser of the flow cytometer. Their emission spectra are well separated, thereby allowing simultaneous, multi-color immunofluorescence measurements.
Each sample is analyzed by a Beckman Coulter CyAn flow cytometer (Beckman Coulter, Fullerton, CA). Results are analyzed by the Summit program (Beckman Coulter). Data analysis is conducted for SAPs after flow cytometry using the Summit program to determine the relative percentages of each of these groups per sample. The SAPs are expressed as a percentage of the total number of events in the sample.
Isolation and flow cytometry of SAPs was performed according to the procedure described in Example 1, above.
Aliquots of platelet rich plasma (PRP) were incubated with aqueous saline solutions of resveratrol only, quercetin only, […], and with an admixture of resveratrol, quercetin and curcumin for a time period of 30 minutes at 37° C. Thereafter the obtained PRP samples were irradiated by an argon laser at […]. Multi-color immunofluorescence was noted, and analyzed as described in Example 1, above.
(Flow cytometry measures light scatter and fluorescence of single cells or particles in a stream.)

Data set [2] has the same test system. In words: In vitro synergy analysis: SAP formation with and without R, Q, C combinations, flow cytometry, Combination Index (Chou-Talalay). Format: cell-based, human. How it is done: The “effective amount” or “therapeutically effective amount” also may be determined by using methods known in the art such as the in vitro flow cytometry assay to evaluate the effectiveness of multiple RQC combinations on platelet activation. All possible combinations of pre-defined “low”, “medium”, and “high” doses of R, Q, and C, respectively, are tested to determine the optimal dose combination. […] A venipuncture sample of 10 mL of blood is obtained from each patient. Of the 10 mL, a 3 mL aliquot of blood is added to a tube containing 0.5 mL of acid-citrate-dextrose solution (38 mM citric acid, 75 mM sodium citrate, 135 mM glucose) to prevent clotting. […] The PRP is transferred to a new tube, leaving about 0.5 mL above the buffy coat layer. […] Platelets are then treated with biotinylated fibrinogen and stained with the following fluorophores: APC-streptavidin (APC-SA), FITC-PAC1, and PE-anti-CD41. PE-anti-CD41 recognizes the platelet-specific, transmembrane protein CD41. FITC-PAC1 identifies activated platelets by recognizing […] which increases its expression at the surface upon activation. APC-SA recognizes superactivated platelets that more readily bind the biotinylated fibrinogen to their surface. Each sample is analyzed by a Beckman Coulter CyAn flow cytometer (Beckman Coulter, Fullerton, CA). Results are analyzed by the Summit program (Beckman Coulter). […] Thus, abnormally high SAP levels are indicative of microvascular disease. […] To evaluate synergistic drug effects, the Combination Index (CI) theorem derived by Chou-Talalay was calculated for each combination product of R, Q, and C. The CI is useful in quantifying levels of synergism and antagonism. The theorem is based on the median-effect equation to provide a common link between a single entity and multiple entities. […] Baseline differences in untreated SAP levels can be adjusted for by evaluating the proportion of total platelets that are sensitive or resistant to treatment (Table 16). This technique adjusts for overall differences in SAP levels between various disease types. […] In AD subjects (n=9), the total number of platelets sensitive to RQC was higher than in healthy controls (n=20). […] The number of sensitive platelets was higher in AD subjects with higher SAP levels while the number of resistant platelets remained largely equivalent.

Data set [3] deals with T1, monomeric beta-amyloid 1-42 (Homo sapiens, UniProt P05067).
T1 construct: 5 ng monomeric beta-amyloid (1-42) (Anaspec, Fremont, CA); purchased Anaspec, Fremont, CA
The data set can be described thus: Thioflavin-T (ThT) assay, aggregate-prevention activity. Format: biochemical. The settings on record: for aggregate-prevention activity: curcumin 0.1, 1.0 or 10 μM, resveratrol 10 μM, quercetin 10 μM, 60 minutes; for aggregate-prevention compared with positive control phenol red (PhR): curcumin at 1 μM, resveratrol at 10 μM. From the text:
(§1) (A) De-aggregation activity of curcumin (C). […] (B) Aggregate-prevention activity of resveratrol (R), quercetin (Q), and curcumin (C).
(§2) The formation of beta-amyloid plaques in the brain is a major hallmark of Alzheimer's disease and is widely considered to be a key initial step in the disease progression. The aim of clinical trials for Alzheimer's disease has historically been to deaggregate or prevent the aggregation of beta-amyloid. Plaques are formed by aggregation of soluble monomeric beta-amyloid into insoluble oligomers, protofibrils, fibrils, and plaques. […] The most common method to evaluate beta-amyloid aggregation is the thioflavin-T (ThT) assay. ThT is a fluorescent probe that binds to beta-amyloid fibrils with specificity and is measurable at 482 nm when excited at 450 nm.
(§3) Curcumin (C) was evaluated at 0.1, 1.0, and 10 μM.

The target of data set [4] is beta-amyloid (1-42) oligomers (Homo sapiens, UniProt P05067). In words: Thioflavin-T (ThT) assay, de-aggregation of pre-aggregated beta-amyloid. Format: biochemical. Conditions: for reduced aggregation of pre-aggregated beta-amyloid (1-42): over 8 days, 37° C.; for de-aggregation activity (words): 0.1, 1.0, 10 μM, 2 hours, 3 days, 8 days.
Excerpt: as §1, §2, §3

Another data set has as its system beta-amyloid oligomers. The settings on record: cited from earlier work.
For the next data set, the system named is beta-amyloid fibrils. The settings on record: cited from earlier work.

Each structure is given as a SMILES string. Read-outs that look alike come from different tables or passages of the source.

beta-amyloid (1-42) oligomers, sequence (P05067 672-713 limits assumed): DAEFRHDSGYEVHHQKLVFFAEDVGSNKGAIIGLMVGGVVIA
T1 sequence (P05067 672-713 limits assumed): as above

For `O=c1c(O)c(-c2ccc(O)c(O)c2)oc2cc(O)cc(O)c12` [Quercetin, 3,3′,4′5,7-pentahydroxy-2-phenylchromen-4-one], in data set [1], the “% Reduction in SAPs” value is reported as 77.8%. Further, in data set [1], the “% SAPs” value was 22.2%. Further, the “% Change” value is −7% in data set [2] (Q 1 μM, AD patient); −27% in data set [2] (Q 5 μM, AD patient); −44% in data set [2] (Q 10 μM, AD patient); −8% in data set [2] (control subject, Q 1 μM); −13% in data set [2] (control subject, Q 5 μM); −23% in data set [2] (control subject, Q 10 μM). The SAP % in data set [2] (Q 1 μM, AD patient) stood at 34.3%; in data set [2] (Q 5 μM, AD patient), 26.7%; in data set [2] (Q 10 μM, AD patient), 20.6%; in data set [2] (control subject, Q 1 μM) it was 34.2%; in data set [2] (control subject, Q 5 μM) it was 32.5%; in data set [2] (control subject, Q 10 μM) it was 28.6%. The “aggregate-prevention activity” value in data set [3] is reported as “inhibited the formation of new beta-amyloid aggregates”. Where the note is “in vivo; cited from earlier work”, the Half-life is 3 to 17 h. Besides, the Bioavailability is 0.2-0.3% (oral, estimation; cited from earlier work) and 0.2-0.3% (oral; estimation; cited from earlier work).
For the compound `Oc1ccc(/C=C/c2cc(O)cc(O)c2)cc1` [Resveratrol, 3,5,4′-trihydroxy-trans-stilbene], the “% Reduction in SAPs” value in data set [1] was found to be 46.6%. Besides, the “% SAPs” value in data set [1] came out at 53.4%. The “% Change” value in data set [2] (R 1 μM, AD patient) is −9%; in data set [2] (R 5 μM, AD patient), −17%; in data set [2] (R 10 μM, AD patient), −19%; in data set [2] (control subject, R 1 μM), −9%; in data set [2] (control subject, R 5 μM), −24%; in data set [2] (control subject, R 10 μM), −29%. Further, the SAP % is 33.6% in data set [2] (R 1 μM, AD patient); 30.5% in data set [2] (R 5 μM, AD patient); 29.9% in data set [2] (R 10 μM, AD patient); 33.9% in data set [2] (control subject, R 1 μM); 28.2% in data set [2] (control subject, R 5 μM); 26.3% in data set [2] (control subject, R 10 μM). Also, the “aggregate-prevention activity” value in data set [3] is “inhibited the formation of new beta-amyloid aggregates”. The “aggregate-prevention compared with positive control phenol red (PhR)” value in data set [3] was “approximately as effective as the positive control phenol red”.
For `COc1cc(/C=C/C(=O)CC(=O)/C=C/c2ccc(O)c(OC)c2)ccc1O` [Curcumin, (1E,6E)-1,7-bis(4-Hydroxy-3-methoxyphenyl)-1,6-heptadiene-3,5-dione], the “% Change” value was −11% in data set [2] (C 0.01 μM, AD patient); −18% in data set [2] (C 0.1 μM, AD patient); −37% in data set [2] (C 1 μM, AD patient); −2% in data set [2] (control subject, C 0.01 μM); −7% in data set [2] (control subject, C 0.1 μM); −12% in data set [2] (control subject, C 1 μM). Moreover, the SAP % came out at 32.5% in data set [2] (C 0.01 μM, AD patient); 30.0% in data set [2] (C 0.1 μM, AD patient); 23.2% in data set [2] (C 1 μM, AD patient); 36.6% in data set [2] (control subject, C 0.01 μM); 34.6% in data set [2] (control subject, C 0.1 μM); 32.9% in data set [2] (control subject, C 1 μM). Besides, the results for the “reduced aggregation of pre-aggregated beta-amyloid (1-42)” value in data set [4] (0.1 μM), in data set [4] (1.0 μM) and in data set [4] (10 μM) were “about 18.6%”, about 51.8% and about 64.7%, respectively. In addition, the figures for the “de-aggregation activity (words)” value in data set [4] and in data set [4] (listed as curcumin) were “de-aggregated beta-amyloid oligomers in a dose-dependent manner at all time points” and “dose-dependently de-aggregated existing beta-amyloid oligomers”, respectively. Moreover, the “aggregate-prevention activity” value in data set [3] is on record as “inhibited the formation of new beta-amyloid aggregates”. In data set [3], the “aggregate-prevention compared with positive control phenol red (PhR)” value was “approximately as effective as the positive control phenol red”. Further, the results for the IC50 in the data set with beta-amyloid oligomers and in the data set on beta-amyloid fibrils were 0.8 µM and 1 µM, respectively.

By IC50 is commonly meant the midpoint of a concentration-inhibition curve.
